{
  "source": "paper PMC10888717",
  "about": "“Identification of Novel Non-Nucleoside Inhibitors of Zika Virus NS5 Protein Targeting MTase Activity” (International Journal of Molecular Sciences, 2024)",
  "key": {"[1]": {"assay": "Metabolic stability in human liver microsomes", "assay_type": "in vitro ADME", "details": "1 h, 37 °C, three experiments", "method": "The metabolic stability was investigated by incubating selected compounds with human liver microsomes (HLMs) for 1 h at 37 °C. The percentage of non-metabolized compounds and metabolites was analyzed by HPLC-UV-MS. […] HPLC analysis confirmed the presence of the oxidated metabolites in small percentages.\nFor the ADME property determination, an Agilent 1260 Infinity HPLC-DAD interfaced with an Agilent MSD 6130 (Agilent Technologies, Palo Alto, CA, USA) was used. Chromatographic conditions were optimized using a Phenomenex Kinetex C18-100 Å column (150 × 4.6 mm) with 5 µm particle size and gradient elution with a binary solution (eluent A: H2O; eluent B: ACN; both eluents were acidified with formic acid 0.1% v/v) at room temperature. The LC analyses started with 5% of B (from t = 0 to t = 1 min), then B was increased to 95% (from t = 1 to t = 10 min) and then kept at 95% (from t = 10 to t = 19 min) and finally returned to initial conditions in 1.0 min. The flow rate was 0.6 mL/min and the injection volume was 10 µL.\nThe test was performed as previously reported with minor modifications. Each compound was dissolved in DMSO and phosphate buffer (0.025 M, pH 7.4), and human liver microsomes (0.2 mg/mL) and a NADPH-regenerating system in MgCl2 48 mM were added to a final volume of 500 µL. This solution was incubated for 1 h at 37 °C and then the reaction was stopped and quenched using 1 mL of ACN. The reaction mixtures were then centrifuged (4000 rpm for 10 min) and the supernatant was taken, dried under nitrogen flow, and then resuspended in 100 µL of methanol. The parent drug and metabolites were subsequently determined using the chromatographic conditions described above. The percentage of non-metabolized compounds was calculated by comparison with reference solutions. The determination of metabolic stability for each compound was performed in three independent experiments."}, "[2]": {"assay": "Cytotoxicity assay (MTT) on Vero E6 cells", "assay_type": "cell-based", "details": "African green monkey; VERO E6 cells, MTT, 3 days; read-out: CC50 ± SD (half-maximal cytotoxic concentration)", "method": "Compounds characterized by the best anti-enzymatic activity were tested against ZIKV in cellular assays. VERO E6 cells were infected with ZIKV at a multiplicity of infection (M.O.I.) of 0.1, and their activities were evaluated by a plaque reduction assay three days post-infection. Ribavirin was used as a reference compound. As reported in Table 2, compound 1, identified in the first screening, was unable to inhibit viral replication up to a 100 μM concentration. […] The cytotoxicity of the series was determined on the same cell line. […] Their selectivity indexes were calculated as the ratio between CC50 and IC50 values; the results highlight their promising safety profile.\nMonolayers of 2.5 × 10^4 Vero E6 cells per well were grown in flat-bottom 96-well culture plates and allowed to adhere overnight. Then, when the cell layers were confluent, the medium was removed, the wells were washed twice with PBS, treated with 100 µL of DMEM with 10 µL DMSO alone (cell positive control) or with various concentrations of anti-NS5 inhibitory compounds under study (compound final concentrations of 100, 10, 1, 0.1, and 0.01 μM), and incubated for 3 days at 37 °C in a CO2. After treatment, an MTT (3-(4,5-dimethylthiazol-2-yl)-2,5-diphenyltetrazolium bromide) kit (Roche, Milan, Italy) was used according to the supplier’s instructions, and the absorbance of each well was determined using a microplate spectrophotometer at a wavelength of 570 nm. Cytotoxicity was calculated by dividing the average optical density of treated samples by the average of DMSO-treated samples (cell positive control)."}},
  "data": [
    {"smiles": "CN1C(=O)c2ccc(NC(=O)c3cc4cccc(Cl)c4s3)cc2C1=O", "note": "[Compound 17]", "values": [
      {"measurement": "HLM Stab.% ± SD (percentage of non-metabolized compound)", "setting": "[1]", "value": "96.39 ± 0.11", "unit": "%"},
      {"measurement": "CC50 at 3 days", "setting": "[2]", "value": "> 100", "unit": "µM"}
    ]}
  ]
}
